We go through three compounds from patent US6469061B1, “Jasmonate pharmaceutical composition for treatment of cancer” (priority 2001, dated 2002).

Values joined by “and” are separate entries in the source; they are usually repeats but may differ in a detail not shown here. Equal values may be shown once.

Series [1] has as its system LNCaP androgen-responsive human prostate adenocarcinoma cell line. The series can be described thus: CellTiter 96 Aqueous Non-Radioactive Cell Proliferation Assay (MTS cytotoxicity), LNCaP. It counts as cell-based. The note with it: LNCaP cells, 0.5-3 mM tested, 24 hours. As for the experimental part: (§1) All cell lines were purchased from ATCC (Rockville, Md.). […] JA and MJ were dissolved in ethanol.

Series [2] relates to SK-28 human melanoma cells. Nature of the series: CellTiter 96 Aqueous Non-Radioactive Cell Proliferation Assay (MTS cytotoxicity), SK-28. It counts as cell-based. The conditions noted are these: SK28 cells, 0.5-3 mM tested, 24 hours. As for the experimental part:
as §1

For series [3], the system named is Caspase-3 activity in Molt-4 cells. Nature of the series: Caspase-3 (CPP32) protease assay in treated Molt-4 cells. The class given is cell-based, human. The note with it: for Caspase-3 activity: all concentrations and times (2, 4, 14 hours), P<0.05. The method, then:
Elevated levels of Caspase-3 are a specific marker of the apoptosis process (Porter and Janicke, Cell Death Differ., 6, 99-104, 1999). In order to definitively determine that the cause of cell death was apoptosis, the level of Caspase-3 activity was measured in cells after treatment with JA and MJ. […] Briefly, 2×10^6 cells were lysed and resuspended in 100 μL of reaction buffer containing a fluorogenic Caspase-3 (CPP32) substrate Ac-DEVD-AMC. Reactions were incubated at 37° C. for 2 hours and samples were assayed at excitation wavelength of 360 nm and emission wavelength of 460 nm, in the FL600 Microplate Fluorescence Reader (Bio-Tek Instruments, Winooski, Vt., USA).

For series [4], the system named is Molt-4, SK-28, LNCaP and MCF7 cells. The series can be described thus: CellTiter 96 cytotoxicity across the four transformed cell lines. The note with it: 0.5-3 mM, 24 hours. It counts as cell-based, human. The method, then: as §1
Results are presented as means ± standard deviation.

Series [5] concerns Molt-4 human T lymphoblastic leukemia cell line. The series can be described thus: CellTiter 96 Aqueous Non-Radioactive Cell Proliferation Assay (MTS cytotoxicity), Molt-4. The note with it: Molt-4 cells, 24 hours.
Description: All cell lines were purchased from ATCC (Rockville, Md.). All reagents were purchased from Sigma Chemicals (St. Louis, Mo.) unless otherwise stated. JA and MJ were dissolved in ethanol.
LNCaP, MCF7 and SK-28 cells (at 4×10^3/well) and Molt-4 cells (at 1.5×10^4/well) were seeded in 96-well plates and allowed to adhere overnight. Plant stress hormone at increasing concentrations was added as indicated below, and toxicity was measured after 24 hours using the CellTiter 96 Aqueous Non-Radioactive Cell Proliferation Assay (Promega, Madison, Wis.); an assay in which viable cells produce a colored product (for details on the protocol of this assay, see below). This assay is quantitative, as the amount of color produced is read using an ELISA reader.
Each cell line was incubated with each of these hormones at a concentration ranging from 0.5-3 mM for 24 hours, after which cytotoxicity was measured. The statistical significance of the results was determined (where appropriate) by two-tailed student's t-test, n=3.
This allowed for development of a color reaction in which dehydrogenases reduce the MTS in metabolically active cells. Since the cells were not washed before the addition of MTS, there were no potentially loosely adherent or non-adherent cells that could have been problematic. Soluble MTS formazan product was measured at a wavelength of 490 nm using a CERES 900 HDI ELISA reader (Bio-Tek Instruments, Inc, Highland Park, Vt.). Optical density is directly proportional to the number of living cells in culture. Cytotoxicity (%) was calculated in the following way: [(OD of control cells−OD of drug-treated cells)/OD of control cells]×100.
Normal lymphocytes and Molt-4 cells were seeded (at 1.5×10^4/well) in 96-well plates.
Jasmonates or salicylic acid were added at a concentration of 1 mM or 3 mM, and cells were incubated for 24 hours. Optical density representing viable cells was determined by the CellTiter 96 Aqueous Non-Radioactive Cell Proliferation Assay.
In series [6] the test system is MCF7 human breast carcinoma cell line. The series can be described thus: CellTiter 96 Aqueous Non-Radioactive Cell Proliferation Assay (MTS cytotoxicity), MCF7. The class given is cell-based. The conditions noted are these: MCF7 cells, 0.5-3 mM tested, 24 hours. As for the experimental part:
as §1

The test system of another series is MCF7 cells. The series can be described thus: Trypan blue exclusion (cell death versus suppression of proliferation), MCF7. It counts as cell-based, human. The text has this:
(§2) Since the same number of cells was aliquoted into each well initially, decreased optical density as measured in wells containing treated cells (above) reflects cellular death and/or decrease in the rate of proliferation. To distinguish between these two possibilities we employed an additional cytotoxicity assay which detects cell death by lack of trypan blue exclusion.

Series [7] deals with Molt-4 cells. Nature of the series: Fluorescence microscopy (DAPI) of nuclear morphology in Molt-4 cells. It counts as cell-based, human. The method, then:
To confirm this fact, Molt-4 cells were treated with JA (2 mM) and MJ (0.5 mM) for 14 hours, and analyzed by fluorescence microscopy in order to detect essential morphological characteristics of apoptosis such as condensation and fragmentation of chromatin.
Referring to FIG. 3, fluorescence microscopy pictures are shown depicting changes in cellular morphology within the nuclei of Molt-4 cells, after treatment with plant stress hormones JA or MJ. 5×10^5 cells/sample were harvested, then fixated by addition of a solution of phosphate-buffered saline (PBS) containing [3% paraformaldehyde and 0.1% Triton X-100], for one hour. Cells were stained for 10 minutes with DAPI (1 μg/ml). Nuclei were analyzed by fluorescence microscopy, (using a fluorescence microscope model. A×70 TRF, made by Olympus Optical, Japan) at a magnification of 1:400. Characteristic apoptotic nuclei are marked with arrows.

For a further series, the system named is LNCaP cells. The series can be described thus: Trypan blue exclusion (cell death versus suppression of proliferation), LNCaP. It counts as cell-based, human.
Source text: as §2

Series [8] relates to Molt-4 cells. Nature of the series: Trypan blue exclusion (cell death versus suppression of proliferation), Molt-4. It counts as cell-based, human.
Source text: as §2

The subject of the next series is SK28 cells. Nature of the series: Trypan blue exclusion (cell death versus suppression of proliferation), SK28. It counts as cell-based, human.
Source text: as §2

Series [9] deals with normal lymphocytes from peripheral blood of healthy donors. The series can be described thus: CellTiter 96 cytotoxicity on normal lymphocytes stimulated by TPA/PHA. The class given is cell-based, human. The note with it: 1 mM or 3 mM, 24 hours. The text has this:
Normal lymphocytes were separated from peripheral blood, as follows: Mononuclear cells (MNC) from venous blood of healthy donors were collected by Ficoll-Hypaque (Phamacia Fine Chemicals, Uppsala, Sweden) density gradient centrifugation. The resultant mononuclear cell preparation was allowed to adhere to plastic dishes to remove contaminant macrophages. The non-adherent peripheral blood lymphocytes were selected for use.

Another series deals with EL-4 lymphoma cells. The series can be described thus: EL-4 lymphoma model in mice, survival. It counts as in vivo, mice (strain C57BL). The method, then: Syngeneic lymphoma cells were injected into a test group and a control group of mice (strain C57BL). The injections were administered either sub-cutaneously, or intra-peritoneally. Methyl jasmonate was administered orally, by injection directly into the resultant tumor or into the peritoneum, and the effect on tumor progression and on the rate of survival, were analyzed.
400,000 EL-4 lymphoma cells were injected intra-peritoneally into 20 test mice, or 19 control mice, of the C57BL strain.
Preliminary experiments had shown that methyl jasmonate at a dosage of 236-472 mg/kg. body weight was appropriate for prevention of tumoral growth. Therefore, methyl jasmonate was dissolved in a lipid carrier (0.4% Lipofundin, manufactured by B. Brown, Melsunger, Germany) and administered orally at a dosage of 236 mg/kg body weight. Administration was daily, via the drinking water, beginning with the day of injection of the lymphoma cells.
19 control mice received the lipid carrier only (0.4% Lipofundin), with no methyl jasmonate dissolved within.
The survival time of each group of mice was measured (in days), and analyzed.
Each of these tests weighs numerically the importance of a death within one of the two groups of mice, on a given day, compared to the number of surviving mice in the whole.

On to `CC/C=C\C[C@H]1C(=O)CC[C@@H]1CC(=O)O` [JA, Jasmonic acid], for which the “Concentrations at which cytotoxicity was significant, P<0.05” value was at least 2000 µM in series [1], at least 2000 µM in series [2], at least 1000 µM in series [5] (0.5-3 mM tested) and 3000 µM in [6]. In series [3], the Caspase-3 activity entry is “increased Caspase-3 activity significantly”. In addition, the “Level of Caspase-3” value in series [3] (incubation for 2 hours) is listed as “didn't induce an elevation”. For the same compound, in series [4], the “Order of sensitivity of the cell lines” value is on record as “Molt-4>SK-28>LNCaP>MCF7”. Also, the Cytotoxicity in [5] (3 mM) was found to be 90%. The “Kind of damage (cell death or inhibition of cell proliferation)” value in the series on MCF7 cells is recorded as “inhibition of cell proliferation”; with LNCaP cells it was “inhibition of cell proliferation”; with Molt-4 cells [8], “cell death”; with SK28 cells, “inhibition of cell proliferation”. Besides, in the series on Molt-4 cells [7] (2 mM for 14 hours), the “Nuclear morphology (apoptotic changes)” value is “induced condensation and fragmentation of chromatin”. For the same compound, the “Cytotoxicity in normal lymphocytes” value in series [9] is given as “do not harm normal cells”.

For the compound `O=C([O-])c1ccccc1O.[Na+]` [SA, Sodium salicylate, reference compound], in series [5] (0.5-3 mM tested), the “Concentrations at which cytotoxicity was significant, P<0.05” value is on record as “all concentrations”. Also, the “Kind of damage (cell death or inhibition of cell proliferation)” value in the series with MCF7 cells, with LNCaP cells, in the series on Molt-4 cells [8] and in the series with SK28 cells was “inhibition of cell proliferation” throughout.

On to `CC/C=C\CC1C(=O)CCC1CC(=O)OC` (stereo not shown) [MJ, methyl jasmonate], for which the “Concentrations at which cytotoxicity was significant, P<0.05” value in series [1] and in [2] was at least 2000 µM each time. Besides, the Caspase-3 activity entry in series [3] is given as “increased Caspase-3 activity significantly”. Moreover, the “Plateau of survival (cumulative percentage of survival)” value with EL-4 lymphoma cells (C57BL mice, EL-4 cells i.p., 236 mg/kg orally daily via drinking water, reached on the 33rd day, control 20%, p=0.01492 Log-Rank, p=0.00953 Cox-Mantel) is 50%. Moreover, the “Dosage appropriate for prevention of tumoral growth” value with EL-4 lymphoma cells (preliminary experiments in mice) was 236-472 mg/kg. body weight. Besides, the “Order of sensitivity of the cell lines” value in [4] is given as “Molt-4>LNCaP>SK28>MCF7”. In addition, the Cytotoxicity in series [5] (0.5 mM) is 87.52% and 90%. Also, the “Concentrations at which cytotoxicity was significant, P<0.01” value in series [5] (0.5-3 mM tested) was “all concentrations”; in series [6], 3000 µM. Also, the “Kind of damage (cell death or inhibition of cell proliferation)” value with MCF7 cells, in the series with LNCaP cells, with Molt-4 cells [8] and in the series with SK28 cells was “death” each time. Further, the “Nuclear morphology (apoptotic changes)” value with Molt-4 cells [7] (0.5 mM for 14 hours) is “completely destroyed nuclear morphology in almost all cells”. In addition, the “Cytotoxicity in normal lymphocytes” value in [9] was “do not harm normal cells”.
